Results as given in patent US11655477B2, “Methods for thaxtomin production and engineered non-native Streptomyces with increased thaxtomin production” (priority 2017, dated 2023).
Entries after “also recorded” stand apart in the source; their conditions may differ. Where two headings read alike, the source gives them in different places.

Legend:
[1] = system: Jurkat cells; assay: MTT assay to characterize cytotoxicity, Jurkat cells; type: cell-based, human; details: for cytotoxicity toward Jurkat cell line (in words): PBS as negative control; for IC30 (30% inhibitory concentration) toward Jurkat cells: human T-cell leukemia Jurkat, MTT, 48 to 72 h
Procedure: (§1) PC-3 and Jurkat cells were cultured in DMEM or RPM11640 medium containing 10% fetal bovine serum and 100 U/mL penicillin and streptomycin, and maintained at 37° C. in a humidified incubator under 5% CO2. The cells (1×10^4 for Jurkat, and 5,000 for PC-3 in 100 μL) were seeded into 96-well plates and incubated overnight. Varying concentrations of purified compounds (0 μM, 12.5 μM, 25 μM, 50 μM and 100 μM) were added to the wells. After incubation at 37° C. for 48 to 72 h, 10 μL of MTT (5 mg/mL) in PBS was added and incubated for 4 h, followed by aspiration of the medium. DMSO (100 μL) was added to each well to dissolve the MTT in the wells, and the plates were agitated for 1 h for recording the absorbance at 570 nm using UV/vis microplate spectrophotometer (BioTek). Three to six replications were performed per treatment of each sample.

[2] = system: PC-3 cells; assay: MTT assay to characterize cytotoxicity, PC-3 cells; type: cell-based, human; details: for cytotoxicity toward PC-3 cell line (in words): PC-3, PBS as negative control; for IC30 (30% inhibitory concentration) toward PC-3 cells: prostate cancer PC-3, MTT, 48 to 72 h
Procedure: as §1

[3] = system: cellulose biosynthesis; details: background statement; cited from earlier work
[4] = system: radish seedling; assay: Herbicidal activity assay, radish seedling growth inhibition on agar plates; type: in vivo; details: for herbicidal activity / growth inhibition toward radish seedling (in words): DMSO as negative control; for IC50: total seedling length after 6 days, percent inhibition relative to DMSO control, four-parameter logistic fit, read-out: I50 (herbicidal activity, radish seedling assay)
Procedure: Serial concentrations (0 to 4 μM) of thaxtomins in DMSO were added into 20 mL of 1.5% warm agar solution with gentle agitation. DMSO was included as the negative control. The solution was then poured into the plate for solidification at room temperature for 30 min. Radish seeds (Burpee) were surface disinfested, pregerminated and selected when the radicle was […] and just emerged from the seed coat. Six radish seedlings were equally located on the surface of each plate with the root ends all pointed in the same direction. Agar plates were covered, sealed with Parafilm. The seedlings in the agar plates grew at room temperature under fluorescent lighting (12 h per day for 6 days), and total seedling lengths were then recorded. Three plates were set up for each dosage of each compound. Percent inhibition relative to the mean growth response in DMSO treated control plates was then calculated. Dose-response curves were fit to a four-parameter logistic model as described in Streibig, J C, et al., 1993 (which is hereby incorporated by reference herein), and Iso values were estimated from these curves.

| Structure (SMILES) | cytotoxicity toward Jurkat cell line (in words) [1] | IC30 (30% inhibitory concentration) toward Jurkat cells [1] [µM] | cytotoxicity toward PC-3 cell line (in words) [2] | IC30 (30% inhibitory concentration) toward PC-3 cells [2] [µM] | concentration range of inhibition of cellulose biosynthesis [3] | herbicidal activity / growth inhibition toward radish seedling (in words) [4] | IC50 [4] [µM] | IC50 ([4]; Raphanus sativus, 144 h) [µM] |
| --- | --- | --- | --- | --- | --- | --- | --- | --- |
| CN1C(=O)[C@](O)(Cc2ccccc2)N(C)C(=O)[C@@H]1Cc1c[nH]c2cccc([N+](=O)[O-])c12 [Compound 3, thaxtomin B] | weak cytotoxicity | 50.92 ± 13.17 | weak cytotoxicity | 37.87 ± 13.46 |  |  |  |  |
| CN1C(=O)[C@](O)(Cc2cccc(O)c2)N(C)C(=O)[C@@H]1Cc1c[nH]c2cccc([N+](=O)[O-])c12 [Compound 1, thaxtomin A, reference compound] | weak cytotoxicity | 70.84 ± 16.68 | weak cytotoxicity | 80.28 ± 10.50 | in the nM range | potent growth inhibition activity | 0.45 ± 0.05 |  |
| CN1C(=O)[C@](O)(Cc2cccc(O)c2)N(C)C(=O)[C@@H]1Cc1c[nH]c2ccc(F)c([N+](=O)[O-])c12 [Compound 9, 5-F-thaxtomin A] | weak cytotoxicity | 63.26 ± 9.29 | weak cytotoxicity | 56.76 ± 17.12 |  | potent herbicidal activity; also recorded: potent growth inhibition activity |  | 0.56 ± 0.03 |
| CN1C(=O)C(O)(Cc2ccccc2O)N(C)C(=O)C1Cc1c[nH]c2cccc([N+](=O)[O-])c12 (centres unmarked) [Compound 2, ortho-thaxtomin A] | weak cytotoxicity | 56.46 ± 12.04 | weak cytotoxicity | 42.38 ± 13.62 |  | potent growth inhibition activity | 0.81 ± 0.04 |  |
